Laboratory results published in patent US9255063B2, “Colchicine solid-state forms; methods of making; and methods of use thereof” (Takeda Pharmaceuticals U.S.A., Inc., priority 2008, dated 2016).

Legend:
[1] = 81% RH; nitrogen; 38 days
Procedure: Five techniques are used to find colchicine solid forms: 1) suspension equilibration, 2) precipitation 3) drying and water vapor adsorption, 4) evaporation, and 5) melt quench. Suspension equilibration generally is carried out by slurrying the colchicine in a solvent system, optionally including an antisolvent. Precipitation generally is carried out by adding an antisolvent to a solution of colchicine. Evaporation technique is generally carried out by allowing the solvent of a solution of colchicine to evaporate to induce crystallization of the colchicine. Water vapor adsorption technique generally involves exposing colchicine to a controlled humid environment so that the material takes up water. The drying experiments can be performed under inert atmospheres (e.g., nitrogen). Melt quench generally involves fast cooling a melt to form a solid.

[2] = TG-FTIR, N2 atmosphere, heating rate 10 K/min, range 25° C. to 350° C.

Structure (SMILES) | Ethyl acetate content after water vapor adsorption [1] | Water content after water vapor adsorption [1] | Decomposition is observed above (temperature) [2]
COc1cc2c(c(OC)c1OC)-c1ccc(OC)c(=O)cc1[C@@H](NC(C)=O)CC2 [Form A, (−)-N-[(7S,12aS)-1,2,3,10-tetramethoxy-9-oxo-5,6,7,9-tetrahydrobenzo[a]heptalen-7-yl]-acetamide] | 2% ethyl | 4% water and | above 275 °C
COc1cc2c(c(OC)c1OC)-c1ccc(OC)c(=O)cc1[C@@H](NC(C)=O)CC2 [Form E] |  |  | above 250 °C
COc1cc2c(c(OC)c1OC)-c1ccc(OC)c(=O)cc1[C@@H](NC(C)=O)CC2 [Form F] |  |  | above 280 °C
